Measured values from patent EP3521435A1, “A HIGH STRINGENCY SELECTION SYSTEM FOR PROTEIN EXPRESSION IN PROLINE-AUXOTROPHIC CELLS” (Bayer AG, priority 2018, dated 2019).

Test system: CHO-K1 cells
Assay: Flow cytometric analysis of GFP expression (MFI, high fluorescing cells) in stably selected cell populations
Format: cell-based, Chinese hamster
Details: for improvement of MFI as compared to Puromycin selected cultures / increase of the frequency of high fluorescing cells as compared to Puromycin selected cultures: DHP in proline-free medium
Description: To efficiently test the impact of different procedures on improving selection stringency, experimental testing in stable cell populations was performed. As test molecules, enhanced green fluorescent protein (GFP) as well as a human IgG1 were chosen. CHO-K1 cells adapted to growth in suspension in defined medium were obtained from SAFC and cultivated in EX-CELL CD CHO Fusion medium (SAFC 14365C). Custom-made EX-CELL CD CHO Fusion medium without L-Proline (Pro) and without L-Ornithine (Orn) ("proline-free medium") was obtained from SAFC. The expression vector system was based on modified versions of "CET 1019 AS-puro-SceI" and "CET 1019 AD-puro-SceI" for GFP and human IgG1, respectively, from Merck-Millipore, containing the Puromycin selection marker (Puromycin N-acetyl-transferase) known to exert a high selection stringency. To minimize variations in cell populations derived from using different transfections or different vectors, the first series of experiments were conducted using vectors into which a P5CS expression cassette was cloned upstream of a UCOE element, in addition to the Puromycin selection marker present downstream of a gene of interest. This way, it was possible to pool different transfections using the same vector to obtain a common starting point, and split the mixture according to different selection conditions, minimizing any variations that are not due to selection conditions themselves. Expression of long and short isoform of murine P5CS (Protein: Delta-1-pyrroline-5-carboxylate synthase; Gene: Aldh18a1; UniProtKB accession number: Q9Z110-1 & Q9Z110-2) was driven by a SV40 promoter. A SV40 polyadenylation sequence was used at the 3' end of the gene. More details can be found in Table 1. Typically, CHO cells were cultivated in EX-CELL CD CHO Fusion medium containing 6 mM GlutaMAX (Thermo Fisher, 35050-38) ("CD-Fusion medium") at 37 °C with 5% CO2. Cells were grown to logarithmic phase under shaking conditions for transfections. 1e7 cells/cuvette were transfected using nucleofection (Amaxa Nucleofector II, following the manufacturer's recommendations) with 5 µg of linearized DNA. After transfection, cells were taken up in 1 ml medium and transferred into 1 well of a 6 well microtiter plate (MTP) already containing 1 ml medium. The cells were incubated for 24 h without shaking, after which 9 ml medium were added and cells were washed (either in standard or proline-free medium). Multiple transfections were pooled, if applicable. Cells were adjusted to 2e5 viable cells/ml and 10 ml were transferred to T-25 flasks. Reference cell populations were selected using 10 µg/ml Puromycin in CD-Fusion medium. For P5CS-based selection, EX-CELL CD CHO Fusion medium (custom-made, SAFC) containing 6 mM GlutaMAX without proline and without ornithine was used ("proline-free" or "CD-Fusion w/o Pro" medium), with or without additional selection pressure.
Cell viability of the different populations was monitored over time. As soon as cell populations appeared to recover from selection pressure, cells were transferred to Shake Flask or TubeSpins for expansion in suspension under shaking conditions. Subsequently, stable cell populations transfected with IgG were seeded at 2e5 viable cells/ml for batch fermentation without selection pressure (i.e. standard CD-Fusion medium containing proline and no other selective agents). The cells were cultivated for 5-10 days, viable cell densities and productivity were monitored over time. IgG titers were determined using Poros A-HPLC method. Typically, final batch titers were recorded at a time point at which majority of cultures had around 70% viability. Stable cell populations transfected with GFP vector were subjected to analysis by flow cytometry using Guava easyCyte 8HT Benchtop Flow Cytometer (Millipore). 250 µl of cell culture were transferred to 96 MTP and washed with PBS. Dead cells were excluded from analysis using propidium iodide (PI). […]

[1] = Table 11, day 19 post-transfection, pJF1555, CD-Fusion w/o Pro + 0.2 mM DHP
[2] = Table 13, day 19 post-transfection, pJF1555, CD-Fusion w/o Pro + 0.05 mM DHP
[3] = Table 13, day 19 post-transfection, pJF1555, CD-Fusion w/o Pro + 0.1 mM DHP
[4] = Table 13, day 19 post-transfection, pJF1555, CD-Fusion w/o Pro + 0.2 mM DHP
[5] = Table 13, day 19 post-transfection, pJF1555, CD-Fusion w/o Pro + 0.4 mM DHP
[6] = day 22 post-transfection, pJF2055, CD-Fusion w/o Pro + 0.02 mM DHP
[7] = day 22 post-transfection, pJF2055, CD-Fusion w/o Pro + 0.03 mM DHP
[8] = day 22 post-transfection, pJF2055, CD-Fusion w/o Pro + 0.04 mM DHP
[9] = day 22 post-transfection, pJF2055, CD-Fusion w/o Pro + 0.06 mM DHP
[10] = day 22 post-transfection, pJF2055, CD-Fusion w/o Pro + 0.07 mM DHP
[11] = day 22 post-transfection, pJF2055, CD-Fusion w/o Pro + 0.08 mM DHP
[12] = day 22 post-transfection, pJF2303, CD-Fusion w/o Pro + 0.02 mM DHP
[13] = day 22 post-transfection, pJF2303, CD-Fusion w/o Pro + 0.04 mM DHP
[14] = day 22 post-transfection, pJF2303, CD-Fusion w/o Pro + 0.06 mM DHP
[15] = day 22 post-transfection, pJF2303, CD-Fusion w/o Pro + 0.08 mM DHP
[16] = day 22 post-transfection, pJF2303, CD-Fusion w/o Pro + 0.2 mM DHP
[17] = day 22 post-transfection, pJF2303, CD-Fusion w/o Pro + 0.3 mM DHP
[18] = day 22 post-transfection, pJF2303, CD-Fusion w/o Pro + 0.4 mM DHP
[19] = day 22 post-transfection, pJF2303, CD-Fusion w/o Pro + 0.5 mM DHP
[20] = day 29 post-transfection, pJF2460, CD-Fusion w/o Pro + 0.01 mM DHP
[21] = day 29 post-transfection, pJF2460, CD-Fusion w/o Pro + 0.03 mM DHP

In the case of `O=C(O)[C@@H]1C=CCN1` [DHP, 3,4-Dehydro-L-Proline], the “increase in MFI as compared to Puromycin-selected population” value (0.2 mM DHP in proline-free medium, pJF1555, #4 vs #1 of Table 11) was 37%, the “increase of the frequency of high fluorescing cells” value (0.2 mM DHP in proline-free medium, pJF1555, vs Puromycin-selected population) was 71% and the “improvement of MFI of the stable cell population” value (0.4 mM DHP, pJF1555, Table 13) was 3 fold. For the same compound, the “increase of the frequency of high fluorescing cells” value (0.4 mM DHP, pJF1555, Table 13) was 8.7-12.6 fold, the “Frequency of high fluorescing cells” value [1] was 5.8% and the “Median Fluorescence Intensity (MFI) (yellow)” value (“Median Fluorescence Intensity” for short) [1] was 17880. The “Frequency of high fluorescing cells” value [2] was 1.7%, the “Median Fluorescence Intensity” value [2] was 7599 and the “Frequency of high fluorescing cells” value [3] was 5.6%. The “Median Fluorescence Intensity” value [3] was 14267, the “Frequency of high fluorescing cells” value [4] was 5.8% and the “Median Fluorescence Intensity” value [4] was 13748. The “Frequency of high fluorescing cells” value [5] was 13.0%, the “Median Fluorescence Intensity” value [5] was 19806 and the “sensitivity to DHP treatment of cultures transfected with pJF2055 relative to pJF2303” value (concentration ranges for DHP giving improvement) was “about 10 fold”. For the same compound, the “Frequency of high fluorescing cells” value [6] was 17.3%, the “Median Fluorescence Intensity” value [6] was 24032 and the “Frequency of high fluorescing cells” value [7] was 18.5%. The “Median Fluorescence Intensity” value [7] was 22607, the “Frequency of high fluorescing cells” value [8] was 31.3% and the “Median Fluorescence Intensity” value [8] was 29703. For the same compound, the “Frequency of high fluorescing cells” value [9] was 6.9%, the “Median Fluorescence Intensity” value [9] was 15210 and the “Frequency of high fluorescing cells” value [10] was 8.7%. The “Median Fluorescence Intensity” value [10] was 12393, the “Frequency of high fluorescing cells” value [11] was 9.3% and the “Median Fluorescence Intensity” value [11] was 9617. The “Frequency of high fluorescing cells” value [12] was 3.3%, the “Median Fluorescence Intensity” value [12] was 12080 and the “Frequency of high fluorescing cells” value [13] was 5.7%. The “Median Fluorescence Intensity” value [13] was 15503, the “Frequency of high fluorescing cells” value [14] was 3.2% and the “Median Fluorescence Intensity” value [14] was 12536. The “Frequency of high fluorescing cells” value [15] was 3.7%, the “Median Fluorescence Intensity” value [15] was 14603 and the “Frequency of high fluorescing cells” value [16] was 14.7%. The “Median Fluorescence Intensity” value [16] was 19163, the “Frequency of high fluorescing cells” value [17] was 17.4% and the “Median Fluorescence Intensity” value [17] was 22030. The “Frequency of high fluorescing cells” value [18] was 24.5%, the “Median Fluorescence Intensity” value [18] was 26155 and the “Frequency of high fluorescing cells” value [19] was 19.6%. For the same compound, the “Median Fluorescence Intensity” value [19] was 23616, the “Frequency of high fluorescing cells” value [20] was 15.3% and the “Median Fluorescence Intensity” value [20] was 19951. The “Frequency of high fluorescing cells” value [21] was 43.6%, the “Median Fluorescence Intensity” value [21] was 31838 and the “improvement of MFI as compared to Puromycin selected cultures” value (pJF2055, Table 26) was “up to 2.6 fold”. For the same compound, the “increase of the frequency of high fluorescing cells as compared to Puromycin selected cultures” value (“increase … to Puromycin selected cultures” below) (pJF2055, Table 26) was 7.4-12.7 fold, the “improvement of MFI as compared to Puromycin selected cultures” value (pJF2303, Table 26) was “up to 2.3 fold” and the “increase … to Puromycin selected cultures” value (pJF2303, Table 26) was 5.8-9.9 fold. For the same compound, the “improvement of MFI as compared to Puromycin selected cultures” value (pJF2460, Table 28) was “up to 2.8 fold” and the “increase … to Puromycin selected cultures” value (pJF2460, Table 28) was “up to 19 fold”.
